According to patent US20220242870A1, “HETEROCYCLE-FUSED PYRIMIDINE DERIVATIVE AND USE THEREOF” (VORONOI Inc., priority 2019, published 2022):

How the values were obtained:
human GST-HPK1 (1-346) = biological target: T1, human GST-HPK1 (1-346) (Homo sapiens, UniProt Q92918); assay: HPK1 enzyme inhibitory ability (ADP-Glo kinase assay); format: biochemical; conditions: human GST-HPK1 3 ng, ATP 3 uM, 25° C. 2 hours
T1 construct: purified human GST-HPK1 (1-346, Signalchem) enzyme; purchased Signalchem
T1 sequence (Q92918 1-346): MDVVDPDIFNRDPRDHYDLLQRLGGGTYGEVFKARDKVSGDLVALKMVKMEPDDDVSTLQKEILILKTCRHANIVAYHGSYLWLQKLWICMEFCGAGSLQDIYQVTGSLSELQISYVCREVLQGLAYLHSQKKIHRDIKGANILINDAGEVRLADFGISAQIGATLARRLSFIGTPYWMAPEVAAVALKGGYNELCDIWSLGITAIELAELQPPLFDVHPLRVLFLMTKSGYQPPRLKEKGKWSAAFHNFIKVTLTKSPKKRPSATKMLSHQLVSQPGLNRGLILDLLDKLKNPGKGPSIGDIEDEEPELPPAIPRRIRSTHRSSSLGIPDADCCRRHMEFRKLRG
Procedure, shortened: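 Human GST-HPK1(1-346), 3 ng, reacted with 3 uM ATP and specific substrate in 40 mM Tris-HCl pH 7.4, 20 mM MgCl2, 0.5 mg/mL BSA, 50 uM DTT for 2 h at 25° C. ADP-Glo luminescence read; IC50 (nM) relative to untreated solvent control.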

MV4-11 cells = assay: AML cell proliferation inhibitory activity (CellTiter-Glo); format: cell-based; conditions: Homo sapiens, 72 hours
Method: The inhibitory activities of the example compounds according to the present invention on the proliferation of acute myeloid leukemia (AML) cells expressing the FLT3 mutant gene were evaluated. Specifically, RS4;11 and MV4-11 cells as acute myeloid leukemia cells expressing the FLT3 mutant gene were cultured in RPMI-1640 (Invitrogen) adding 10% FBS. The cells were seeded into each well of a clear bottom white 96-well plate (Corning) at 3000 to 5000 cells 24 hours before compound treatment. The compound was diluted in DMSO (diluted each three-fold, to a total of 12 concentrations) and injected at 0.5 μL each so as to be a final concentration of 0.3 nM to 50 μM. After 72 hours of the compound treatment, they were treated with CellTiter-Glo Luminescent Cell Viability assay (Promega) and stored at room temperature for 10 minutes, and luminescence intensities were measured with a reader (SynergyNeo, Biotek) to count viable cells. Each experiment was performed three times repeatedly. The result values were calculated as the cell growth rate (%) compared to the control treated with the solvent. The graph was derived using the GraphPad Prism program (version 5.0), the GI50 (nM) values were calculated, and the results were shown in Table 3 below.

MCF-7 cells = assay: Breast cancer cell line proliferation inhibitory activity (CellTiter-Glo 2.0); format: cell-based; conditions: Homo sapiens, MCF7, 120 hours
Procedure, shortened: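 MCF-7 cells exposed to a 12-point, 3-fold dilution series (final 0.00005–10 μM) for 120 h at 37 °C. Viability read by CellTiter-Glo 2.0 luminescence, expressed as percent of vehicle-treated cells. GI50 (nM) derived from the curves.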

human FLT3-ITD enzyme = biological target: T2, human FLT3-ITD enzyme (Homo sapiens, UniProt P36888); assay: FLT3 enzyme inhibitory ability (ADP-Glo kinase assay); format: biochemical; conditions: human FLT3-ITD enzyme 10 ng, ATP 10 μM, 25° C. 1 hour
T2 sequence (P36888 1-993): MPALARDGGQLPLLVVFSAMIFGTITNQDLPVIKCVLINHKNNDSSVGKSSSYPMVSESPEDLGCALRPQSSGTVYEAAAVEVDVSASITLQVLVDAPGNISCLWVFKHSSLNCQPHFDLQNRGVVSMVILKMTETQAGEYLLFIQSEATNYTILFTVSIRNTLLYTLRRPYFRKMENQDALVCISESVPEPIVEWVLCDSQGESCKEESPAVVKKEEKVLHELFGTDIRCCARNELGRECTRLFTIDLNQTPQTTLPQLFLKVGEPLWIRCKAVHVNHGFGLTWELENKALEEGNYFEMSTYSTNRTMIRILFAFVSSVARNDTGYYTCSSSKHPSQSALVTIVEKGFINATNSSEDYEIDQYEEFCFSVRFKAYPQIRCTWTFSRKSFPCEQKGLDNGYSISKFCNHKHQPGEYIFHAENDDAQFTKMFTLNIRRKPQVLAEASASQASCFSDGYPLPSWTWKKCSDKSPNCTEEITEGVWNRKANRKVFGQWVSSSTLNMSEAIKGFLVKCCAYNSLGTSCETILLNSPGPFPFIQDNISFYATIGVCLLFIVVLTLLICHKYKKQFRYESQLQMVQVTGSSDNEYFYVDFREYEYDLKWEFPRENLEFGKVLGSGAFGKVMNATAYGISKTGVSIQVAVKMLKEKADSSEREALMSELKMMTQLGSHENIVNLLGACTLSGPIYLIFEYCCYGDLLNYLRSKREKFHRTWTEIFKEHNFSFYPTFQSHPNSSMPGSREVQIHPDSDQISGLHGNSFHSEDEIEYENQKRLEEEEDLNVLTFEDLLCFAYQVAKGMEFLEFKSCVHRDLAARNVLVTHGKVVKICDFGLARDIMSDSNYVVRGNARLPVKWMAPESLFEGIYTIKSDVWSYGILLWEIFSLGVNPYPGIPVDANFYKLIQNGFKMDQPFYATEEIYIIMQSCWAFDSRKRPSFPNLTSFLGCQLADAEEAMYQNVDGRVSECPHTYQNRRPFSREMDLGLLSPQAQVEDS
Procedure, shortened: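 Purified human FLT3-ITD (10 ng) with 10 μM ATP and specific substrate in 40 mM Tris-HCl pH 7.4, 20 mM MgCl2, 0.5 mg/mL BSA, 50 μM DTT, 1 h at 25 °C. ADP formation read by ADP-Glo luminescence; IC50 (nM) versus solvent-treated control.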

| IC50 (human GST-HPK1 (1-346)) [nM] | GI50 (MV4-11 cells) [nM] | GI50 (MCF-7 cells) [nM] | IC50 (human FLT3-ITD enzyme) [nM] | SMILES |
| --- | --- | --- | --- | --- |
| > 500 | > 500 | > 500 | ≥ 250 | CN1CCN(c2ccc(Nc3nc(N4OCC[C@H]4c4ccccc4)c4sccc4n3)cc2)CC1 [Example 59, (S)-N-(4-(4-methylpiperazin-1-yl)phenyl)-4-(3-phenylisoxazolidin-2-yl)thieno[3,2-d]pyrimidin-2-amine] |
| > 500 | > 500 | > 500 | 250 to 500 | COc1cc(Nc2nc(N3N=CCC3c3ccccc3)c3cc[nH]c3n2)ccc1N1CCC(N2CCN(C)CC2)CC1 (stereo not shown) [Example 69, N-(3-methoxy-4-(4-(4-methylpiperazin-1-yl)piperidin-1-yl)phenyl)-4-(5-phenyl-4,5-dihydro-1H-pyrazol-1-yl)-7H-pyrrolo[2,3-d]pyrimidin-2-amine] |
| > 500 | > 500 | > 500 | 250 to 500 | COc1cccc([C@@H]2CCON2c2nc(Nc3ccc(N4CCN(C)CC4)cc3)nc3[nH]ccc23)c1 [Example 75, (S)-4-(3-(3-methoxyphenyl)isoxazolidin-2-yl)-N-(4-(4-methylpiperazin-1-yl)phenyl)-7H-pyrrolo[2,3-d]pyrimidin-2-amine] |
| ≥ 250 | > 500 | > 500 | ≥ 250 | CN1CCN(c2ccc(Nc3nc(N4OCC[C@H]4c4cccc(F)c4)c4cc[nH]c4n3)cc2)CC1 [Example 76, (S)-4-(3-(3-fluorophenyl)isoxazolidin-2-yl)-N-(4-(4-methylpiperazin-1-yl)phenyl)-7H-pyrrolo[2,3-d]pyrimidin-2-amine] |
| ≥ 250 | 250 to 500 | > 500 | ≥ 250 | CN1CCN(c2ccc(Nc3nc(N4OCC[C@H]4c4cccs4)c4cc[nH]c4n3)cc2)CC1 [Example 77, (S)-N-(4-(4-methylpiperazin-1-yl)phenyl)-4-(3-(thiophen-2-yl)isoxazolidin-2-yl)-7H-pyrrolo[2,3-d]pyrimidin-2-amine] |
| ≥ 250 | > 500 | > 500 | ≥ 250 | CN1CCN(c2ccc(Nc3nc(N4OCC[C@H]4c4cccnc4)c4cc[nH]c4n3)cc2)CC1 [Example 78, (S)-N-(4-(4-methylpiperazin-1-yl)phenyl)-4-(3-(pyridin-3-yl)isoxazolidin-2-yl)-7H-pyrrolo[2,3-d]pyrimidin-2-amine] |
| ≥ 250 | ≥ 250 | > 500 | ≥ 250 | CN(C)C1CCN(c2ccc(Nc3nc(N4OCC[C@H]4c4ccccc4)c4cc[nH]c4n3)cc2)CC1 [Example 83, (S)-N-(4-(4-(dimethylamino)piperidin-1-yl)phenyl)-4-(3-phenylisoxazolidin-2-yl)-7H-pyrrolo[2,3-d]pyrimidin-2-amine] |
| ≥ 250 | ≥ 250 | > 500 | 250 to 500 | COc1cc(Nc2nc(N3OCC[C@H]3c3ccccc3)c3cc[nH]c3n2)ccc1N1CCC(N2CCN(C)CC2)CC1 [Example 87, (S)-N-(3-methoxy-4-(4-(4-methylpiperazin-1-yl)piperidin-1-yl)phenyl)-4-(3-phenylisoxazolidin-2-yl)-7H-pyrrolo[2,3-d]pyrimidin-2-amine] |
| ≥ 250 | 250 to 500 | > 500 | 250 to 500 | OCCN1CCN(C2CCN(c3ccc(Nc4nc(N5OCC[C@H]5c5ccccc5)c5cc[nH]c5n4)cc3)CC2)CC1 [Example 89, (S)-2-(4-(1-(4-((4-(3-phenylisoxazolidin-2-yl)-7H-pyrrolo[2,3-d]pyrimidin-2-yl)amino)phenyl)piperidin-4-yl)piperazin-1-yl)ethan-1-ol] |
| > 500 | > 500 | > 500 | ≥ 250 | COc1cc(C(=O)N2CCOCC2)ccc1Nc1nc(N2OCC[C@H]2c2ccccc2)c2cc[nH]c2n1 [Example 96, (S)-(3-methoxy-4-((4-(3-phenylisoxazolidin-2-yl)-7H-pyrrolo[2,3-d]pyrimidin-2-yl)amino)phenyl)(morpholino)methanone] |
| ≥ 250 | > 500 | > 500 | ≥ 250 | CCN(CC)CCCOc1c(C)cc(Nc2nc(N3OCC[C@H]3c3ccccc3)c3cc[nH]c3n2)cc1C [Example 101, (S)-N-(4-(3-(diethylamino)propoxy)-3,5-dimethylphenyl)-4-(3-phenylisoxazolidin-2-yl)-7H-pyrrolo[2,3-d]pyrimidin-2-amine] |
| ≥ 250 | > 500 | > 500 | ≥ 250 | c1ccc([C@@H]2CCON2c2nc(Nc3ccc4c(c3)CNCC4)nc3[nH]ccc23)cc1 [Example 104, (S)-N-(4-(3-phenylisoxazolidin-2-yl)-7H-pyrrolo[2,3-d]pyrimidin-2-yl)-1,2,3,4-tetrahydroisoquinolin-7-amine] |
| ≥ 250 | 250 to 500 | > 500 | ≥ 250 | CN1CCc2ccc(Nc3nc(N4OCC[C@H]4c4ccccc4)c4cc[nH]c4n3)cc2C1 [Example 105, (S)-2-methyl-N-(4-(3-phenylisoxazolidin-2-yl)-7H-pyrrolo[2,3-d]pyrimidin-2-yl)-1,2,3,4-tetrahydroisoquinolin-7-amine] |
| ≥ 250 | ≥ 250 | > 500 | ≥ 250 | CN1CCc2cc(Nc3nc(N4OCC[C@H]4c4ccccc4)c4cc[nH]c4n3)ccc2C1 [Example 109, (S)-2-methyl-N-(4-(3-phenylisoxazolidin-2-yl)-7H-pyrrolo[2,3-d]pyrimidin-2-yl)-1,2,3,4-tetrahydroisoquinolin-6-amine] |
| ≥ 250 | > 500 | 250 to 500 | ≥ 250 | c1ccc([C@@H]2CCON2c2nc(Nc3ccc4c(c3)CCNC4)nc3[nH]ccc23)cc1 [Example 110, (S)-N-(4-(3-phenylisoxazolidin-2-yl)-7H-pyrrolo[2,3-d]pyrimidin-2-yl)-1,2,3,4-tetrahydroisoquinolin-6-amine] |
| ≥ 250 | ≥ 250 | > 500 | 250 to 500 | CC(C)(O)CN1CCc2cc(Nc3nc(N4OCC[C@H]4c4ccccc4)c4cc[nH]c4n3)ccc2C1 [Example 111, (S)-2-methyl-1-(6-((4-(3-phenylisoxazolidin-2-yl)-7H-pyrrolo[2,3-d]pyrimidin-2-yl)amino)-3,4-dihydroisoquinolin-2(1H)-yl)propan-2-ol] |
